Article PMC9687990, “Identification, Characterization, and Expression of a β-Galactosidase from Arion Species (Mollusca)” (Biomolecules, 2022)
Blank lines part the entries; values can stand above or below the molecule they belong to.

Assays:
[1] = molecular target: T1, recombinant β-galactosidase from A. vulgaris (β-gal) (Arion vulgaris, UniProt A0A0B7AQJ9); assay: inhibition of pNP-β-Gal hydrolysis, colorimetric […] nm; type: biochemical; details: pNP-β-Gal substrate, pH 4.5, 37 °C, 2 h; 12 mM galactose; product inhibition
T1 construct: gene ORF136304
T1 sequence (A0A0B7AQJ9 1-661): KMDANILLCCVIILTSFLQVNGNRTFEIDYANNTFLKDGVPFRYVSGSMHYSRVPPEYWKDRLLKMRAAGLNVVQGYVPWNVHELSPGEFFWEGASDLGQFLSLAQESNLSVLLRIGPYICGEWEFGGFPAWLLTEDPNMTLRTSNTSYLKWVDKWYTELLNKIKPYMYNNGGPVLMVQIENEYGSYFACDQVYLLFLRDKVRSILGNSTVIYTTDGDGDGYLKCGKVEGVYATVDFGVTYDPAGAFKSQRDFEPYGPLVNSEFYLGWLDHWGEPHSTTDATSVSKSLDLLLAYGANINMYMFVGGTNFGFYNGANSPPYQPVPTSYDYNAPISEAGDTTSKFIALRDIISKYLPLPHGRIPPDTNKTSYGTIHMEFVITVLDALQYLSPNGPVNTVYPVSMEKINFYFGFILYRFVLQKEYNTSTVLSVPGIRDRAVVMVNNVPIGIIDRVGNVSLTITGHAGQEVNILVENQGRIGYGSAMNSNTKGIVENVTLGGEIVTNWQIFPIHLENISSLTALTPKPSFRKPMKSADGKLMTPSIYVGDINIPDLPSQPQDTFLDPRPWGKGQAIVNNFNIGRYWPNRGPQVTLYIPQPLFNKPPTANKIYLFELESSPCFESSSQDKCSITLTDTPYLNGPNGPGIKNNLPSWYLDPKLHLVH

[2] = system: T2, native β-galactosidase from A. lusitanicus; assay: colorimetric p-nitrophenol release, […] nm; type: biochemical, Arion vulgaris; details: pH 4.5 (Na citrate), 37 °C, 2 h; 0.2-12.5 mM substrate
T2 construct: gene β-Gal

purified protein = substrate: O=[N+]([O-])c1ccc(O[C@@H]2O[C@H](CO)[C@H](O)[C@H](O)[C@H]2O)cc1; assay: purified protein; details: pH 4.5 (Na citrate), 37 °C, 2 h, 0.2-12.5 mM substrate

- % reduction of activity at 12 mM [1]: ~ 40%
Molecule: OC[C@H]1OC(O)[C@H](O)[C@@H](O)[C@H]1O (stereo partly drawn) [galactose]

- Km [2]: 8.3 mM
Molecule: O=[N+]([O-])c1ccc(O[C@@H]2O[C@H](CO)[C@H](O)[C@H](O)[C@H]2O)cc1 [pNP-β-Gal]

B1: recombinant β-galactosidase from A. vulgaris (β-gal) (Arion vulgaris) (protein)
chain: T1 sequence (A0A0B7AQJ9 1-661)
- Km (purified protein): 3.2 mM
